One experiment has as its system ulcers (reserpine). The experiment is described as follows: Anti-ulcer action, reserpine-induced ulcers. The class given is in vivo, rats. The settings on record: intra-peritoneal. The source says: Dose mg./Kg. Inhibition %
Reserpine 5 Intra-peritoneal

Experiment [1] concerns ulcers (Psychosomatic Frustration, M. Bonfils). The experiment is described as follows: Anti-ulcer action, psychosomatic frustration ulcers (M. Bonfils). The experiment is classed as in vivo, rats. The settings on record: oral.
For experiment [2], the system named is ulcers (Pyloric Ligature, M. Shay). Nature of the experiment: Anti-ulcer action, pyloric ligature ulcers (M. Shay). The experiment is classed as in vivo, rats.
Experiment [3] relates to different artificially invoked conditions. Nature of the experiment: Neurotropic, musculotropic, antihistaminic, anti-ulcer and healing activity in different artificially invoked conditions. The experiment is classed as in vivo. The settings on record: different artificially invoked conditions in mice, rats, Guinea pigs, rabbits and dogs.
A further experiment deals with ulcers (phenylbutazone). Nature of the experiment: Anti-ulcer action, phenylbutazone-induced ulcers. The experiment is classed as in vivo, rats. The settings on record: oral.

The source of these data is patent US4103019A, “Triterpene derivatives” (Laboratorios Landerlan, S. A., priority 1975, dated 1978).

In the case of `CC1(C(=O)OCC2CCC[N+]2(C)C)CCC2(C)CCC3(C)C(=CC(=O)C4C5(C)CCC(O)C(C)(C)C5CCC43C)C2C1` (centres unmarked) [Example 3, 2-(glycyrrhetinoylmethyl) N-methyl pyrrolidine methylsulfate], the Inhibition % with ulcers (reserpine) (5 mg./Kg.) stood at 42%; in the experiment on ulcers (reserpine) (10 mg./Kg.), 25%; with ulcers (reserpine) (25 mg./Kg.), 25%; in experiment [1] (5 mg./Kg.), 42%; in experiment [1] (10 mg./Kg.), 33%; in experiment [1] (20 mg./Kg.) it was 18%. The Inhibition % in experiment [2] (2.5 mg./Kg., intra-peritoneal) is reported as 52%; in experiment [2] (5 mg./Kg., intra-dermal), 36%; in experiment [2] (10 mg./Kg., intra-peritoneal) it was 69%; in experiment [2] (15 mg./Kg., intra-peritoneal), 48%; in experiment [2] (25 mg./Kg., intra-peritoneal), 69%. In addition, the “activity as neurotropic, musculotropic antihistaminic, anti-ulcer and healing agents” value in experiment [3] was “outstanding activity”.
Consider `CC1(C(=O)OCC2CCC[N+]2(C)C)CCC2(C)CCC3(C)C(=CC(=O)C4C5(C)CCC(O)C(C)(C)C5CCC43C)C2C1` (centres unmarked) [Example 4, 2(glycyrrhetinoyl methyl) N-methylpyrrolidine methylbromide], for which the Inhibition % in the experiment on ulcers (reserpine) (5 mg./Kg.) was determined as 8%; in the experiment on ulcers (reserpine) (10 mg./Kg.), 47%; with ulcers (reserpine) (25 mg./Kg.), 13%; in experiment [1] (5 mg./Kg.), 52%; in experiment [1] (10 mg./Kg.), 43%; in experiment [1] (50 mg./Kg.), 25%. Moreover, the Inhibition % in experiment [2] (2.5 mg./Kg., intra-dermal) was 27%; in experiment [2] (5 mg./Kg., intra-dermal), 29%; in experiment [2] (5 mg./Kg., intra-peritoneal) it was 65%; in experiment [2] (10 mg./Kg., intra-dermal), 24%; in experiment [2] (10 mg./Kg., intra-peritoneal) it was 55%; in the experiment on ulcers (phenylbutazone) (5 mg./Kg.), 22%. Further, in the experiment with ulcers (phenylbutazone) (10 mg./Kg.), the Inhibition % is on record as 23%. Further, the “activity as neurotropic, musculotropic antihistaminic, anti-ulcer and healing agents” value in experiment [3] is given as “outstanding activity”.
